pIC50: −log10 of the molar value. Read-outs that look alike come from different tables or passages of the source.

Consider 7 compounds from patent US9708336B2, “Metallo-beta-lactamase inhibitors” (priority 2014, dated 2017).

One experiment has as its target NDM-1 (Klebsiella pneumoniae, UniProt C7C422). The experiment in a line: biochemical. The class given is biochemical. The settings on record: read-out: NDM-1 IC50.
Another experiment has as its target IMP-1 (Serratia marcescens, UniProt P52699). Put plainly: biochemical. The settings on record: read-out: IMP-1 IC50. Type of experiment: biochemical.
Another experiment has as its target VIM-1 (Pseudomonas aeruginosa (strain ATCC 15692 / DSM 22644 / CIP 104116 / JCM 14847 / LMG 12228 / 1C / PRS 101 / PAO1), UniProt A0A0F7KYQ8). Put plainly: Enzyme activity: determination of IC50, fluorescence assay with CCF2-FA substrate (VIM-1). The class given is biochemical.
Experiment [1] relates to Escherichia coli expressing NDM-1 (CLB30016). The experiment in a line: Antibiotic potentiation activity: synergistic concentration (MITC95) with imipenem, OD600 growth. The class given is cell-based. The settings on record: for Escherichia coli expressing NDM-1 (CLB 30016) MITC95: concentration giving 95% inhibition of bacterial growth. A digest of the protocol: (§1)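 Clinical MBL-producing strains (E. coli NDM-1, S. marcescens IMP-1, K. pneumoniae VIM-1) from overnight plates were diluted 1:100 into 1.1×CAMHB. Compound was tested with imipenem at 4 μg/ml (optionally 1 μg/ml) or without it. After 22–24 h at 35 °C, growth was read as OD600.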

Experiment [2] deals with Klebsiella pneumoniae expressing VIM-1 (IHMA599644). The description is as above. Type of experiment: cell-based. The settings on record: for Klebsiella pneumoniae expressing VIM-1 (IHMA 599644) MITC95: concentration giving 95% inhibition of bacterial growth. In a few lines:
as §1

In experiment [3] the test system is Serratia marcescens expressing IMP-1 (CL5741). The description is as above. Type of experiment: cell-based. The settings on record: for Serratia marcescens expressing IMP-1 (CL5741) MITC95: concentration giving 95% inhibition of bacterial growth. In a few lines: as §1
Setting [4] is: fluorescence assay with CCF2-FA substrate.
Setting [5] is: fluorescence assay with CCF2-FA substrate, read-out: VIM-1 IC50.
[6] abbreviates: CLB30016 (NDM-1), 95% inhibition of bacterial growth.
Where [7] appears, read: IHMA599644 (VIM-1), 95% inhibition of bacterial growth.
The mark [8] stands for this setting: CL5741 (IMP-1), 95% inhibition of bacterial growth.
Setting [9] is: NDM-1 enzyme, CCF2-FA substrate.
Where [10] appears, read: IMP-1 enzyme, CCF2-FA substrate.
[11] abbreviates: VIM-1 enzyme, CCF2-FA substrate, read-out: VIM-1 IC50.
Where [12] appears, read: (CLB30016, NDM-1), 95% growth inhibition.
Where [13] appears, read: Klebsiella pneumoniae IHMA599644 (VIM-1), 95% growth inhibition.
Where [14] appears, read: Serratia marcescens CL5741 (IMP-1), 95% growth inhibition.

Sequence of NDM-1 (C7C422 whole entry, looked up, species assumed): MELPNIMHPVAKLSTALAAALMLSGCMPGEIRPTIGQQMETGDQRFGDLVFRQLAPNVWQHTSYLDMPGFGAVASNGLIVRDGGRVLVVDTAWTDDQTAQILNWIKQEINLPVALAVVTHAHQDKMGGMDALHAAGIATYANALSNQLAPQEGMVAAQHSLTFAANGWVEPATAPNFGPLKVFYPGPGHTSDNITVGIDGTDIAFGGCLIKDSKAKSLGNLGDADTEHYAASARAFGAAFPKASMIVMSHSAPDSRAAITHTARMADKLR
Sequence of IMP-1 (P52699 whole entry, looked up): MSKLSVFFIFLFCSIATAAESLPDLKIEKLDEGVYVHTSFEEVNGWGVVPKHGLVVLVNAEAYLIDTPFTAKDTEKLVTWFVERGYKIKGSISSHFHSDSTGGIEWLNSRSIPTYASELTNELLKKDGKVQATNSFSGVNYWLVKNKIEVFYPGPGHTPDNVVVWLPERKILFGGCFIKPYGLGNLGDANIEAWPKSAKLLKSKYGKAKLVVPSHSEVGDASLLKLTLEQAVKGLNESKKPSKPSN

For `CC(NCc1ccc(-c2cccc(S(N)(=O)=O)c2-c2nnn[nH]2)cc1)C(=O)O` (stereo not drawn) [Example 358, N-{[3′-sulfamoyl-2′-(1H-tetrazol-5-yl)biphenyl-4-yl]methyl}alanine], the pIC50 on NDM-1 (NDM-1 enzyme, CCF2-FA fluorescence assay) was 7.48; at IMP-1 (IMP-1 enzyme, CCF2-FA fluorescence assay) it was 6.54; on VIM-1 (VIM-1 IC50, VIM-1 enzyme, CCF2-FA fluorescence assay), 6.41. Further, the “Escherichia coli MITC95” value in experiment [1] (Escherichia coli expressing NDM-1 (CLB30016), 95% growth inhibition) is 3.125 µM. Further, the “Klebsiella pneumoniae MITC95” value in experiment [2] (Klebsiella pneumoniae expressing VIM-1 (IHMA599644), 95% growth inhibition) turned out to be 75 µM. Moreover, the “Serratia marcescens MITC95” value in experiment [3] (Serratia marcescens expressing IMP-1 (CL5741), 95% growth inhibition) was 4.688 µM.
As to `NS(=O)(=O)c1c(C(F)(F)F)ccc(-c2ccc(C3CCN(CCC4CCNCC4)CC3)cc2)c1-c1nnn[nH]1` [Example 793, 4′-[1-(2-piperidin-4-ylethyl)piperidin-4-yl]-2-(1H-tetrazol-5-yl)-4-(trifluoromethyl)biphenyl-3-sulfonamide], the pIC50 on NDM-1 (setting [4]) is 8.15; at IMP-1 (setting [4]), 8.99; on VIM-1 (setting [5]) it was 8.33. Further, the “Escherichia coli MITC95” value in experiment [1] (setting [6]) worked out at 1.563 µM. Also, the “Klebsiella pneumoniae MITC95” value in experiment [2] (setting [7]) was 25 µM. For the same compound, the “Serratia marcescens MITC95” value in experiment [3] (setting [8]) was found to be 3.125 µM.
`NS(=O)(=O)c1cccc(-c2cnc3nc(C(F)(F)F)ccn23)c1-c1nnn[nH]1` [Example 650, 2-(1H-tetrazol-5-yl)-3-[7-(trifluoromethyl)imidazo[1,2-a]pyrimidin-3-yl]benzenesulfonamide]: the pIC50 is 7.66 at NDM-1 (setting [9]), 5.90 on IMP-1 (setting [10]) and 7.33 on VIM-1 (setting [11]). For the same compound, in experiment [1] (setting [12]), the “Escherichia coli MITC95” value was 1.563 µM. Further, the “Klebsiella pneumoniae MITC95” value in experiment [2] (setting [13]) was found to be 50 µM. Further, the “Serratia marcescens MITC95” value in experiment [3] (setting [14]) stood at 100 µM.
Turning to `NS(=O)(=O)c1c(C(F)(F)F)ccc(N2CCC3(CCCNC3)CC2)c1-c1nnn[nH]1` [Example 776, 3-(2,9-diazaspiro[5.5]undec-9-yl)-2-(1H-tetrazol-5-yl)-6-(trifluoromethyl) benzenesulfonamide], the figures for the pIC50 at NDM-1 (setting [4]), on IMP-1 (setting [4]) and on VIM-1 (setting [5]) were 7.82, 7.25 and 7.80, respectively. In addition, in experiment [1] (setting [6]), the “Escherichia coli MITC95” value worked out at 25 µM. Moreover, the “Klebsiella pneumoniae MITC95” value in experiment [2] (setting [7]) is 25 µM. In experiment [3] (setting [8]), the “Serratia marcescens MITC95” value worked out at 50 µM.
Regarding `Nc1[nH]nc2ccc(-c3cccc(S(N)(=O)=O)c3-c3nnn[nH]3)cc12` [Example 132, 3-(3-amino-2H-indazol-5-yl)-2-(1H-tetrazol-5-yl)benzenesulfonamide], the negative-log IC50 (pIC50) at NDM-1 (setting [4]) was 8.56; at IMP-1 (setting [4]), 6.12; on VIM-1 (setting [5]) it was 7.57. For the same compound, the “Escherichia coli expressing NDM-1 (CLB 30016) MITC95” value in experiment [1] came to 1.172 µM. The “Klebsiella pneumoniae expressing VIM-1 (IHMA 599644) MITC95” value in experiment [2] was 6.25 µM. Further, the “Serratia marcescens expressing IMP-1 (CL5741) MITC95” value in experiment [3] stood at 12.5 µM.
As for `NS(=O)(=O)c1cccc(-c2cccc3c2CNC3=O)c1-c1nnn[nH]1` [Example 120, 3-(1-oxoisoindolin-4-yl)-2-(1H-tetrazol-5-yl)benzenesulfonamide], the pIC50 at NDM-1 (setting [4]) was 8.85; on IMP-1 (setting [4]), 6.11; against VIM-1 (VIM-1 IC50, fluorescence assay with CCF2-FA substrate), 8.30. Also, the “Escherichia coli expressing NDM-1 (CLB 30016) MITC95” value in experiment [1] was determined as 0.7813 µM. Also, the “Klebsiella pneumoniae expressing VIM-1 (IHMA 599644) MITC95” value in experiment [2] came out at 4.688 µM. Further, the “Serratia marcescens expressing IMP-1 (CL5741) MITC95” value in experiment [3] was found to be 18.75 µM.
`Nc1nc2cccc(-c3ccc(C(F)(F)F)c(S(N)(=O)=O)c3-c3nnn[nH]3)c2s1` [Example 553, 3-(2-amino-1,3-benzothiazol-7-yl)-2-(1H-tetrazol-5-yl)-6-(trifluoromethyl)benzenesulfonamide]: the pIC50 on NDM-1 (setting [9]) was 10.30; at IMP-1 (setting [10]) it was 9.02; at VIM-1 (setting [11]) it was 10.20. In addition, the “Escherichia coli MITC95” value in experiment [1] (setting [12]) was 3.125 µM. In addition, the “Klebsiella pneumoniae MITC95” value in experiment [2] (setting [13]) stood at 3.125 µM. Besides, the “Serratia marcescens MITC95” value in experiment [3] (setting [14]) amounted to 3.125 µM.
